Measured values published in ChEMBL document CHEMBL1949591, “Reversal of multidrug resistance by morning glory resin glycosides in human breast cancer cells” (J Nat Prod, 2012).
In brackets after ≈: the same amount, converted by molar mass.

What was measured:
MCF7 [1] = experiment: Reversal of p-glycoprotein-mediated drug resistant in vinblastine-sensitive human MCF7 cells assessed as ratio of IC50 for vinblastin to IC50 for vinblastin in presence of compound at 25 ug/ml after 72 hrs by SRB assay; assay type: cell-based
MCF7 [2] = experiment: Reversal of p-glycoprotein-mediated drug resistant in vinblastine-resistant human MCF7 cells assessed as ratio of IC50 for vinblastin to IC50 for vinblastin in presence of compound at 25 ug/ml after 72 hrs by SRB assay; assay type: cell-based
[3] = molecular target: T1, ATP-dependent translocase ABCB1 (Homo sapiens, UniProt P08183); experiment: Inhibition of p-glycoprotein in vinblastine-sensitive human MCF7 cells assessed as decrease in rhodamine 123 accumulation at 25 ug/ml after 30 mins by flow cytometry; assay type: cell-based; conditions: mcf7, 0.5 h
MCF7 [4] = experiment: Reversal of p-glycoprotein-mediated drug resistant in human MCF7 cells grown in vinblastine-free medium assessed as ratio of IC50 for vinblastin to IC50 for vinblastin in presence of compound at 25 ug/ml after 72 hrs by SRB assay; assay type: cell-based
[5] = molecular target: T1, ATP-dependent translocase ABCB1; experiment: Inhibition of p-glycoprotein in vinblastine-sensitive human MCF7 cells assessed as decrease in rhodamine 123 accumulation at 25 ug/ml after 30 mins followed by washout measured after […] by flow cytometry; assay type: cell-based; conditions: mcf7, 0.5 h
MCF7 [6] = experiment: Inhibition of p-glycoprotein expression in vinblastine-sensitive human MCF7 cells at 25 ug/ml after 24 hrs by immunofluorescence flow cytometry relative to control; assay type: functional; conditions: MCF7, 24 h
MCF7 [7] = experiment: Cytotoxicity against vinblastine-resistant human MCF7 cells after 72 hrs by SRB assay; assay type: functional, cell-based; conditions: MCF7, 72 h
MCF7 [8] = experiment: Inhibition of p-glycoprotein expression in vinblastine-sensitive human MCF7 cells at 5 ug/ml after 24 hrs by immunofluorescence flow cytometry relative to control; assay type: functional; conditions: MCF7, 24 h
[9] = molecular target: T1, ATP-dependent translocase ABCB1; experiment: Inhibition of p-glycoprotein in vinblastine-sensitive human MCF7 cells assessed as decrease in rhodamine 123 accumulation at 5 ug/ml after 30 mins by flow cytometry; assay type: cell-based; conditions: mcf7, 0.5 h

T1 sequence (P08183 whole entry): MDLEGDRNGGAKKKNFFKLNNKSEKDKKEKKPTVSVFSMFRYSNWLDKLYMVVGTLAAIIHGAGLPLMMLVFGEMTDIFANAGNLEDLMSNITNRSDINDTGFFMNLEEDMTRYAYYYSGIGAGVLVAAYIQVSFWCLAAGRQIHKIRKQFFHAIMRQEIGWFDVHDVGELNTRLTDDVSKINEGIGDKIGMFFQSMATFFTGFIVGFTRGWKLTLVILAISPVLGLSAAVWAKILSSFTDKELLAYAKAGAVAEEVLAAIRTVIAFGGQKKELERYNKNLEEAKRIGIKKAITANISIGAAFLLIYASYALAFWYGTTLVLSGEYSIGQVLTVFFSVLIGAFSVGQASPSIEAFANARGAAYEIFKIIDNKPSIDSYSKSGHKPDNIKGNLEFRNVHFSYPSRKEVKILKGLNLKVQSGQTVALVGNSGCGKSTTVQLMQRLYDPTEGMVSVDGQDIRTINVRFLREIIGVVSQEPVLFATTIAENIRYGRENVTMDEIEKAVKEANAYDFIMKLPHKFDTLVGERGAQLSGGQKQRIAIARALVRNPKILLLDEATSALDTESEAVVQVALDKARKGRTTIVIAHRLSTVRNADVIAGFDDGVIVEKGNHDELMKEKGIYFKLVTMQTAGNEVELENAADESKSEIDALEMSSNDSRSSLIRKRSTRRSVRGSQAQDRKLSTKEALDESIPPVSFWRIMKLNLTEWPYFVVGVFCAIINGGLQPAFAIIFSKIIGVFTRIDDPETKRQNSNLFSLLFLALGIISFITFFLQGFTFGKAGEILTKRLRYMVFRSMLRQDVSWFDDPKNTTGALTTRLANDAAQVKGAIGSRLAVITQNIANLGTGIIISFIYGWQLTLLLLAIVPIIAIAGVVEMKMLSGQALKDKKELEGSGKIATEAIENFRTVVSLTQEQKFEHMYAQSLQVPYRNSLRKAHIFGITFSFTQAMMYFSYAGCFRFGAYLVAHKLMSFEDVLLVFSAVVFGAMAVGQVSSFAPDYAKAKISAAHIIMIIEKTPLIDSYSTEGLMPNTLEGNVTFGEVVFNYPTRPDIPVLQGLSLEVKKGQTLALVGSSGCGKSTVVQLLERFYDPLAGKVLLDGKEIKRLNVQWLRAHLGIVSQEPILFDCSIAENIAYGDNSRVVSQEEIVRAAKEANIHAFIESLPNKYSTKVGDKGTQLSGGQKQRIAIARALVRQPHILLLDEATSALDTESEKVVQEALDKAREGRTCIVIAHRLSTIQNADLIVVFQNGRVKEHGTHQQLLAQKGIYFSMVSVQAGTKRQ

Structure (SMILES)	Ratio IC50 (MCF7 [1])	Ratio IC50 (MCF7 [2])	Ratio IC50 (MCF7 [4])	IC50 (MCF7 [7]) [µg/mL]	further results
CCCCC[C@H]1CCCCCCCCCC(=O)O[C@H]2[C@@H](O)[C@H](O[C@H]3[C@H](O1)O[C@H](C)[C@H](O)[C@@H]3O)O[C@@H](C)[C@@H]2O[C@@H]1O[C@@H](C)[C@H](O[C@@H]2O[C@@H](C)[C@H](OC(=O)[C@@H](C)CC)[C@@H](O)[C@H]2O)[C@@H](O[C@@H]2O[C@H](CO)[C@@H](O)[C@H](O)[C@H]2O)[C@H]1OC(=O)[C@@H](C)CC [MURUCOIDIN V]	47	7.8	255		inhibition (INH) [3]: Active; inhibition (INH) [5]: Active; inhibition at 25 µg/mL (MCF7 [6]): 30%
C/C=C(\C)C(=O)O[C@H]1[C@H](O)[C@@H](O)[C@H](O[C@@H]2[C@H]3OC(=O)CCCCCCCCC[C@H](CCCCC)O[C@@H]4O[C@H](C)[C@@H](O)[C@H](O)[C@H]4O[C@@H]4O[C@H](COC(=O)C(C)C)[C@@H](O)[C@H](O)[C@H]4O[C@H](O[C@H]2C)[C@@H]3OC(=O)[C@H](C)[C@@H](C)O)O[C@@H]1C [ORIZABIN X]				1.5 (≈ 1.35 µM)	
CCCCC[C@H]1CCCCCCCCCC(=O)O[C@@H]2[C@@H](O[C@@H]3O[C@H](C)[C@@H](OC(=O)[C@@H](C)CC)[C@H](O)[C@H]3O)[C@H](C)O[C@@H](O[C@H]3[C@H](O[C@H]4[C@H](O1)O[C@H](C)[C@@H](O)[C@@H]4O)O[C@H](COC(=O)[C@H](C)[C@@H](C)O)[C@@H](O)[C@@H]3O)[C@@H]2OC(=O)[C@@H](C)CC [ORIZABIN XX]				1.5 (≈ 1.34 µM)	
CCCCC[C@H]1CCCCCCCCCC(=O)O[C@H]2[C@H](O[C@H]3[C@H](O1)O[C@H](C)[C@H](O)[C@@H]3O)O[C@@H](C)[C@H](O[C@@H]1O[C@@H](C)[C@H](O[C@@H]3O[C@@H](C)[C@H](OC(=O)[C@@H](C)CC)[C@@H](O)[C@H]3O)[C@@H](O[C@@H]3O[C@H](CO)[C@@H](O)[C@H](O)[C@H]3O)[C@H]1OC(=O)[C@@H](C)CC)[C@H]2O	> 73.4	> 1910	> 1590		
COC(=O)[C@H]1[C@H]2C[C@@H]3c4[nH]c5cc(OC)ccc5c4CCN3C[C@H]2C[C@@H](OC(=O)c2cc(OC)c(OC)c(OC)c2)[C@@H]1OC [RESERPINE]					inhibition at 5 µg/mL (MCF7 [8]): 38%; inhibition (INH) [9]: Active
C/C=C(\C)C(=O)O[C@H]1[C@H](O)[C@@H](O)[C@H](O[C@@H]2[C@H]3OC(=O)CCCCCCCCC[C@H](CCCCC)O[C@@H]4O[C@H](C)[C@@H](O)[C@H](O)[C@H]4O[C@@H]4O[C@H](COC(=O)[C@@H](C)[C@H](C)O)[C@@H](O)[C@H](O)[C@H]4O[C@H](O[C@H]2C)[C@@H]3OC(=O)[C@@H](C)CC)O[C@@H]1C [ORIZABIN XVII]				1.5 (≈ 1.34 µM)	
C/C=C(\C)C(=O)O[C@H]1[C@H](O)[C@@H](O)[C@H](O[C@@H]2[C@H]3OC(=O)CCCCCCCCC[C@H](CCCCC)O[C@@H]4O[C@H](C)[C@@H](O)[C@H](O)[C@H]4O[C@@H]4O[C@H](COC(=O)C(C)C)[C@@H](O)[C@H](O)[C@H]4O[C@H](O[C@H]2C)[C@@H]3OC(=O)[C@@H](C)[C@H](C)O)O[C@@H]1C [ORIZABIN XI]				1.5 (≈ 1.35 µM)	
CCCCC[C@H]1CCCCCCCCCC(=O)O[C@H]2[C@H](O[C@H]3[C@H](O1)O[C@H](C)[C@H](O)[C@@H]3O)O[C@@H](C)[C@H](O[C@@H]1O[C@@H](C)[C@H](O[C@@H]3O[C@@H](C)[C@H](OC(=O)[C@@H](C)CC)[C@@H](O)[C@H]3O)[C@@H](OC(=O)[C@@H](C)CC)[C@H]1O)[C@H]2O	> 73.4	> 1910	> 1590		
CCCCC[C@H]1CCCCCCCCCC(=O)O[C@@H]2[C@@H](O[C@@H]3O[C@H](C)[C@@H](OC(=O)[C@@H](C)CC)[C@H](O)[C@H]3O)[C@H](C)O[C@@H](O[C@H]3[C@H](O[C@H]4[C@H](O1)O[C@H](C)[C@@H](O)[C@@H]4O)O[C@H](COC(=O)[C@@H](C)[C@H](C)O)[C@@H](O)[C@@H]3O)[C@@H]2OC(=O)[C@@H](C)CC [ORIZABIN XXI]				1.5 (≈ 1.34 µM)	
CCCCC[C@H]1CCCCCCCCCC(=O)O[C@H]2[C@H](O)[C@@H](CO)O[C@@H](O[C@H]3[C@H](O1)O[C@H](C)[C@H](O)[C@@H]3O)[C@@H]2O[C@@H]1O[C@@H](C)[C@H](OC(=O)[C@@H](C)CC)[C@@H](O[C@@H]2O[C@@H](C)[C@H](O)[C@@H](O)[C@H]2O)[C@H]1OC(=O)[C@@H](C)CC	47	> 1910	> 1590		
C/C=C(\C)C(=O)O[C@H]1[C@H](O)[C@@H](O)[C@H](O[C@@H]2[C@H]3OC(=O)CCCCCCCCC[C@H](CCCCC)O[C@@H]4O[C@H](C)[C@@H](O)[C@H](O)[C@H]4O[C@@H]4O[C@H](COC(=O)[C@H](C)[C@@H](C)O)[C@@H](O)[C@H](O)[C@H]4O[C@H](O[C@H]2C)[C@@H]3OC(=O)[C@@H](C)CC)O[C@@H]1C [ORIZABIN XVI]				1.5 (≈ 1.34 µM)	
C/C=C(\C)C(=O)O[C@H]1[C@H](O)[C@@H](O)[C@H](O[C@@H]2[C@H]3OC(=O)CCCCCCCCC[C@H](CCCCC)O[C@@H]4O[C@H](C)[C@@H](O)[C@H](O)[C@H]4O[C@@H]4O[C@H](COC(=O)[C@@H](C)CC)[C@@H](O)[C@H](O)[C@H]4O[C@H](O[C@H]2C)[C@@H]3OC(=O)[C@H](C)[C@@H](C)O)O[C@@H]1C [ORIZABIN XIV]				1.5 (≈ 1.34 µM)	
CCCCC[C@H]1CCCCCCCCCC(=O)O[C@H]2[C@H](O[C@H]3[C@H](O1)O[C@H](CO)[C@@H](O)[C@@H]3O)O[C@@H](C)[C@H](O[C@@H]1O[C@@H](C)[C@H](O[C@@H]3O[C@@H](C)[C@H](OC(=O)[C@@H](C)CC)[C@@H](O)[C@H]3O)[C@@H](O[C@@H]3O[C@@H](C)[C@H](O)[C@@H](O)[C@H]3O)[C@H]1OC(=O)[C@@H](C)CC)[C@H]2O	> 73.4	> 1910	> 1590		
